Results from article PMC12064818, “A general assay platform to study protein pharmacology using ligand-dependent structural dynamics” (Nature Communications, 2025).
Several values for one entry are separate records, joined by “and”; a condition that tells them apart may be missing. Identical values can stand only once. Like-named read-outs stand apart in the source and are kept apart here.

How the values were obtained:
[1] = biological target: FLuc-N-HiBiT (firefly luciferase) (Photinus pyralis, UniProt P08659, form not given/L550V); assay: Firefly luciferase (FLuc) enzymatic luminescence assay, FLuc-N-HiBiT; type: biochemical; conditions: for Functional Enzymatic Assay: 10 nM FLuc-N-HiBiT, replicates; for Functional Enzymatic Assay / 10 nM FLuc-N-HiBiT Enz, Mean: Log [PTC124]
Experimental: The enzyme activity of FLuc-N-HiBiT, FLuc-C-HiBiT, and FLuc-C-NLuc was measured similar to P. pyralis firefly luciferase (FLuc) as previously described. […] Compounds and controls were added to each plate as described in Supplementary Data 8 with a Hornet pintool system (Wako Automation). Compounds were incubated with respective enzymes for 30–60 min at room temperature protected from light and covered by solid metal lid to prevent evaporation. […] Luciferin was incubated with FLuc enzyme for 5 min before FLuc activity was then measured on a ViewLux CCD imager (PerkinElmer), with exposure times up to ten seconds with medium to high gain settings. Data were normalized to average no enzyme control as 100% enzyme inhibition and average DMSO neutral control. See Supplementary Table 4 for additional details.
Supplementary Table 4. Protocol for Firefly luciferase (FLuc) and NanoLuc (NLuc) enzymatic
Supplementary Table 4: Protocol for Firefly luciferase (FLuc) and NanoLuc (NLuc) enzym atic lum inescence assay
Firefly luciferase (FLuc) enzym atic lum inescence assay
(§1) Sequence Param eter Value Description
No enzym e control (colum n 1) and enzym e solution (1- 10 nM FLuc enzym e) in FLuc assay
1 Reagent 4 µLbuffer; white/solid bottom , m edium bind, high base plates (Greiner), dispensed with BioRaptr
(§2) com pounds transferred to respective colum ns with Pintool
2b Test Com pounds 23 nLconcentration range) in colum ns 5- 48; com pounds transferred to respective wells with
3 Incubation 30 m in Incubate enzym e + com pounds at am bient tem p for 30 m in, protected from light
4 Reagent 3 µLAdd 3 µL of D-luciferin substrate solution to each well (final concentration 10 µM); dispensed
5 Detector ViewLux Read plate lum inescence (Exposure = 1- 10 sec; Gain = Medium -high; Speed = Slow;
Dispensing solution was diluted in 1X PBS, pH 7.4. […]

[2] = biological target: E. coli Lig-N-HiBiT (DNA ligase) (Escherichia coli, UniProt P15042); conditions: for SDR assay data: 0.5 nM E. coli Lig-N-HiBiT; for SDR assay data / SDR response: Log [ATP]; for SDR response: replicates
[3] = biological target: C. elegans iPGM-C-HiBiT (Caenorhabditis elegans, UniProt G5EFZ1); assay: C. elegans iPGM fluorescent polarization competition-binding assay (Ce-2d-FL probe); set-up: cDNA, containing Phe2-Ile539 and the 6xHis tag; His6 (C); made in house; host or cells: E. coli
Experimental: All reagents were prepared on ice, protected from light. […] Compounds and controls were added with a pintool to each plate as described in Supplementary Data 8. Assay plates were incubated for 20 min at ambient temperature. […] Microtiter plates were allowed to reach equilibrium (30 min incubation at ambient temperature) while protected from light. Fluorescence polarization was measured with the same reader settings as above. Data were row-wise normalized to no enzyme control as -100% activity and enzyme + DMSO vehicle control as neutral control. See Supplementary Table 7 for additional details.
Supplementary Table 7. Protocol for Co- factor independent phosphoglycerate mutase (iPGM) fluorescent polarization competition-biding assay
Supplementary Table 7: Protocol for C. elegans co-factor independent phosphoglycerate m utase (iPGM) fluorescent polarization com petition-binding assay
as §1
No enzym e control (colum n 1) and enzym e solution (10 nM Ce iPGM-C-HiBiT dialyzed 1 Reagent 4 µLagainst Zn/Mn final assay concentration) in assay buffer + 0.05% IGEPAL; black/solid bottom , m edium bind, high base plates (Greiner), dispensed with BioRaptr 2 […]
Test com pounds: m acrocyclic peptides at 5 m M stock concentration in 16- pt, 1:3 titration […]
as §2
3 Incubation 20 m in Incubate enzym e + com pounds at am bient tem p for 20 m in, protected from light 4 Pre-Read Spark Measure fluorescence polarization of fluorescein (X480, M535) on Spark m ultimode m icroplate reader […]
dispensed with BioRaptr 2
6 Incubation 30 m in Am bient tem perature, protected from light
7 Detector Spark Measure fluorescence polarization of fluorescein (X480, M535) on Spark m ultimode m icroplate reader
Assay buffer: 30 m M Tris-HCl, pH 8.0; 5 m M MgSO4; 20 m M KCl; 0.05% IGEPAL. All solutions filtered through 0.22 1 µm syringe filter prior to dispense.
Measure fluorescence polarization of fluorescein on Spark m ultimode m icroplate reader with FP protocol: Excitation […]
4/7 20.0; G-Factor “Manual” = 1.000; Blank “Not Defined”.
Advanced Settings: Flashes = 30; Gain “Optim al”; Mirror “Autom atic”; Z-position [um ] “Manual” = 20000; Settle Tim e […]
Fluorescence polarization ligand solution: 30 m M Tris-HCl, pH 8.0; 5 m M MgSO4; 20 m M KCl; 0.05% IGEPAL; 15 […]
Solution filtered through 0.22
µm syringe filter prior to dispense.

[4] = E. coli Lig-N-HiBiT (0.5 nM), ligand 100 µM
[5] = C. elegans iPGM-C-HiBiT FP 10 nM, ligand […] FP

Chain of E. coli Lig-N-HiBiT (DNA ligase) (P15042 2-671): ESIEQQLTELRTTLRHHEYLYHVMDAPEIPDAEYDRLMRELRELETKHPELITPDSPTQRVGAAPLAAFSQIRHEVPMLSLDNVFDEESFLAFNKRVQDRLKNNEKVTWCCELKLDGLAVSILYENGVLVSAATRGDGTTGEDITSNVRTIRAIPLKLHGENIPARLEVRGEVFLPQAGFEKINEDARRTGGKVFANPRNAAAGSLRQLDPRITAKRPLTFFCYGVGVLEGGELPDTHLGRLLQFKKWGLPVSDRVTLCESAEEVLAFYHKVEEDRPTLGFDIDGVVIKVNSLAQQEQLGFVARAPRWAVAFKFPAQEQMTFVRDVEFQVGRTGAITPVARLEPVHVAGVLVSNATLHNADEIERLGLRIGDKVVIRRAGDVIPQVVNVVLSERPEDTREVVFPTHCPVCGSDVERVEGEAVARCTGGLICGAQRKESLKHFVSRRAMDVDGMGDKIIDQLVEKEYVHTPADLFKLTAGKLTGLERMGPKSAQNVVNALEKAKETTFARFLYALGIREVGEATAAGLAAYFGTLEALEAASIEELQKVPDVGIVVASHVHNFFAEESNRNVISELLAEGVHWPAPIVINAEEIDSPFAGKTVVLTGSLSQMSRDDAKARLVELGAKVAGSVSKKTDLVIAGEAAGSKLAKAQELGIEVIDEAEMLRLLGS
Chain of C. elegans iPGM-C-HiBiT (G5EFZ1 2-539): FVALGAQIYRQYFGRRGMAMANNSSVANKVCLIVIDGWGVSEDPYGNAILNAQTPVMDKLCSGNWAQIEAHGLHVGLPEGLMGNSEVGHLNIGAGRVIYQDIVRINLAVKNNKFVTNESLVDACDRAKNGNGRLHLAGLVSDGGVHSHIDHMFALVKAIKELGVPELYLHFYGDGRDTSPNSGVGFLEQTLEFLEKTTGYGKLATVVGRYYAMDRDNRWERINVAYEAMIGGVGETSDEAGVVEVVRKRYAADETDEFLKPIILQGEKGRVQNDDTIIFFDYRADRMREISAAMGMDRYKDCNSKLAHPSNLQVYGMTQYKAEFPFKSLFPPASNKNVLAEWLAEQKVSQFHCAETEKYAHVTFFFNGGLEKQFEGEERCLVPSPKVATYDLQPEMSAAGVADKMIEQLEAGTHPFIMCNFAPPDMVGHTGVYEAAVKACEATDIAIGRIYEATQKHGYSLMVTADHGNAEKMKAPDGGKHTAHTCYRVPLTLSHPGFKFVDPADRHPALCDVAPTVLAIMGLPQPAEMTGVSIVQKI
Chain of FLuc-N-HiBiT (firefly luciferase) (P08659 2-550 L550V, form open): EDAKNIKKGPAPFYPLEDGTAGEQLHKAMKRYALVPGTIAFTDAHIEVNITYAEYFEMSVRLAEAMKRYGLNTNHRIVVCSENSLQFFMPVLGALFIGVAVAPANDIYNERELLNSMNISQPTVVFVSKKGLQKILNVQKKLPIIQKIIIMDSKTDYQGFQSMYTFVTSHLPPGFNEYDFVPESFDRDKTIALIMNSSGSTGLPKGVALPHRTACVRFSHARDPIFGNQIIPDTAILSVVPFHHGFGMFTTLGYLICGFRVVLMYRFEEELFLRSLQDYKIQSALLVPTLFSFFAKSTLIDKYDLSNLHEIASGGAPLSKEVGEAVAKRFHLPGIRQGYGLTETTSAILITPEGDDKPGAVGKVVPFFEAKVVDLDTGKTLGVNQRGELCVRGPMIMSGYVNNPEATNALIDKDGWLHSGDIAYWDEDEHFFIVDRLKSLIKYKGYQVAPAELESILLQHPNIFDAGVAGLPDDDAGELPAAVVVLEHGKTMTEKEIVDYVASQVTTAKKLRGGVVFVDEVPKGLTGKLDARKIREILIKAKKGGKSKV

O=C(O)c1cccc(-c2noc(-c3ccccc3F)n2)c1 [PTC124, reference compound]
Functional Enzymatic Assay ([1]; M -4.48): 7.2 RLU and 7.9 RLU (2×) and 7.3 RLU and 6.7 RLU and 7.1 RLU | Functional Enzymatic Assay ([1]; M -4.96): 8.6 RLU and 8.1 RLU and 7.7 RLU and 8.3 RLU and 7.1 RLU and 7.2 RLU | Functional Enzymatic Assay ([1]; M -5.44): 8.3 RLU (2×) and 8.6 RLU and 8.4 RLU and 7.5 RLU (2×) | Functional Enzymatic Assay ([1]; M -5.91): 8.7 RLU (2×) and 9.2 RLU and 8.9 RLU and 8.3 RLU and 8.5 RLU | Functional Enzymatic Assay ([1]; M -6.39): 10.6 RLU and 10.5 RLU and 10.2 RLU (2×) and 10.1 RLU and 9.7 RLU | Functional Enzymatic Assay ([1]; M -6.87): 14.3 RLU (2×) and 14.5 RLU and 14.7 RLU and 15.0 RLU and 14.8 RLU | Functional Enzymatic Assay ([1]; M -7.35): 29.6 RLU and 29.7 RLU and 30.2 RLU and 33.4 RLU and 41.4 RLU and 37.0 RLU | Functional Enzymatic Assay ([1]; M -7.82): 144.5 RLU and 149.3 RLU and 178.2 RLU and 166.0 RLU and 190.3 RLU and 174.6 RLU | Functional Enzymatic Assay ([1]; M -8.30): 301.7 RLU and 309.5 RLU and 327.2 RLU and 328.1 RLU and 308.7 RLU and 316.4 RLU | Functional Enzymatic Assay ([1]; M -8.78): 370.7 RLU and 364.6 RLU and 370.3 RLU and 363.9 RLU and 364.3 RLU and 365.0 RLU | Functional Enzymatic Assay ([1]; M -9.25): 391.9 RLU and 389.1 RLU and 396.6 RLU and 382.9 RLU and 381.5 RLU and 379.2 RLU | Functional Enzymatic Assay ([1]; M -9.73): 393.8 RLU and 390.8 RLU and 393.2 RLU and 390.0 RLU and 387.4 RLU and 383.0 RLU | Functional Enzymatic Assay ([1]; M -10.21): 400.1 RLU and 398.5 RLU and 399.0 RLU and 394.9 RLU and 391.0 RLU and 381.4 RLU | Functional Enzymatic Assay ([1]; M -10.69): 399.5 RLU and 393.3 RLU and 400.5 RLU and 393.7 RLU and 383.2 RLU and 377.0 RLU | Functional Enzymatic Assay ([1]; M -11.16): 392.3 RLU and 386.5 RLU and 400.5 RLU and 393.0 RLU and 385.0 RLU and 368.5 RLU | Functional Enzymatic Assay ([1]; M -11.64): 389.5 RLU and 376.4 RLU and 395.8 RLU and 380.1 RLU and 381.7 RLU and 371.3 RLU | pIC50, FLuc-N-HiBiT (10 nM) ([1]; 10 μM ATP): 7.68 ± 0.02 | 10 nM FLuc-N-HiBiT Enz, Mean ([1]; M (Enz) -4.24): 7.3 RLU | 10 nM FLuc-N-HiBiT Enz, Mean ([1]; M (Enz) -4.72): 7.8 RLU | 10 nM FLuc-N-HiBiT Enz, Mean ([1]; M (Enz) -5.19): 8.1 RLU | 10 nM FLuc-N-HiBiT Enz, Mean ([1]; M (Enz) -5.67): 8.7 RLU | 10 nM FLuc-N-HiBiT Enz, Mean ([1]; M (Enz) -6.15): 10.2 RLU | 10 nM FLuc-N-HiBiT Enz, Mean ([1]; M (Enz) -6.63): 14.6 RLU | 10 nM FLuc-N-HiBiT Enz, Mean ([1]; M (Enz) -7.10): 33.5 RLU | 10 nM FLuc-N-HiBiT Enz, Mean ([1]; M (Enz) -7.58): 167.1 RLU | 10 nM FLuc-N-HiBiT Enz, Mean ([1]; M (Enz) -8.06): 315.3 RLU | 10 nM FLuc-N-HiBiT Enz, Mean ([1]; M (Enz) -8.53): 366.5 RLU | 10 nM FLuc-N-HiBiT Enz, Mean ([1]; M (Enz) -9.01): 386.9 RLU | 10 nM FLuc-N-HiBiT Enz, Mean ([1]; M (Enz) -9.49): 389.7 RLU | 10 nM FLuc-N-HiBiT Enz, Mean ([1]; M (Enz) -9.97): 394.1 RLU | 10 nM FLuc-N-HiBiT Enz, Mean ([1]; M (Enz) -10.44): 391.2 RLU | 10 nM FLuc-N-HiBiT Enz, Mean ([1]; M (Enz) -10.92): 387.6 RLU | 10 nM FLuc-N-HiBiT Enz, Mean ([1]; M (Enz) -11.40): 382.5 RLU

Nc1ncnc2c1ncn2[C@@H]1O[C@H](COP(=O)(O)OP(=O)(O)OP(=O)(O)O)[C@@H](O)[C@H]1O [ATP]
SDR assay data ([2]; M -2.85): 49.3 and 51.1 and 44.4 | SDR assay data ([2]; M -3.15): 28.9 and 34.6 and 36.9 | SDR assay data ([2]; M -3.45): 8.9 and 17.7 and 9.6 | SDR assay response (in words) ([2]; E. coli Lig-N-HiBiT): weak though reproducible SDR output | SDR assay statistics Ave RLU [2, 4]: 315.5 RLU | SDR assay statistics S:B [2, 4]: 1.1 | SDR assay statistics S:N [2, 4]: 0.6 | SDR assay statistics Z’ [2, 4]: -6.013 | max resp ([2]; E. coli Lig-N-HiBiT, maximum response): 48.3 | SDR response ([2]; M -2.85): 49.3 and 51.1 and 44.4 | SDR response ([2]; M -3.15): 28.9 and 34.6 and 36.9 | SDR response ([2]; M -3.45): 8.9 and 17.7 and 9.6 | SDR response ([2]; M -3.75): 3.6 and 9.8 and 15.1 | SDR response ([2]; M -4.05): 1.5 and 7.7 and 15.7 | SDR response ([2]; M -4.35): 0.051 and 11.3 and 4.7 | SDR response ([2]; M -4.65): 0.8 and 3.9 and 8.7 | SDR response ([2]; M -4.95): -0.949 and 1.5 and 6.8 | SDR response ([2]; M -5.25): -4.0 and 5.1 and 9.7 | SDR response ([2]; M -5.55): -8.9 and 4.7 and 2.7 | SDR response ([2]; M -5.86): -3.0 and -2.8 and 4.9 | SDR response ([2]; M -6.16): -9.9 and -0.326 | SDR response ([2]; M -6.46): -6.9 and 3.7 | SDR response ([2]; M -6.76): -8.7 and 1.0 and 4.2

CC(C)C[C@H](NC(=O)[C@H](Cc1ccc(O)cc1)NC(=O)[C@@H]1CSCC(=O)N[C@H](Cc2ccc(O)cc2)C(=O)N[C@@H](CC(=O)O)C(=O)N[C@@H](Cc2ccc(O)cc2)C(=O)N2CCC[C@H]2C(=O)NCC(=O)N[C@@H](CC(=O)O)C(=O)N[C@@H](Cc2ccc(O)cc2)C(=O)N1)C(=O)N[C@@H](Cc1ccc(O)cc1)C(=O)NCC(=O)N[C@H](C(=O)N[C@@H](CS)C(=O)NCC(N)=O)[C@@H](C)O [Ce-2]
IC50 [3]: 34.7 nM | Standard assay statistics Ave RLU [3, 5]: 67.8 RLU | Standard assay statistics S:B [3, 5]: 1.4 | Standard assay statistics S:N [3, 5]: -2.4 | Standard assay statistics Z’ [3, 5]: -0.978
